Source: ChEMBL document CHEMBL1122495, “Ultra-short-acting beta-adrenergic receptor blocking agents. 3. Ethylenediamine derivatives of (aryloxy)propanolamines having esters on the aryl function” (J Med Chem, 1983)

Columns and labels:
Cavia porcellus [1] = species on record: Cavia porcellus; assay: Inhibition of isoproterenol-induced responses in guinea pig trachea.; type: functional; settings: read-out: pA2 (converted)
Canis lupus familiaris = assay: Time for 80% recovery from 50% blockade levels after 3-h infusions of drug(in vivo)
Cavia porcellus [2] = species on record: Cavia porcellus; assay: Negative log concentration effecting 50% blockade of isoproterenol-induced rate responses in vitro in guinea pig right atria.; type: functional; settings: read-out: pA2 (converted)
Cavia porcellus [3] = species on record: Cavia porcellus; assay: Cardioselectivity determined (Antilog [pA2 (atria) - pA2 (trachea)] )
Cavia porcellus [4] = assay: Less than 80% recovery from 50% blockade levels after 3-h infusions of drug(in vivo)
Cavia porcellus [5] = species on record: Cavia porcellus; assay: No blockade was observed at 10 e-6 M in guinea pig right atria (In vitro); type: functional; settings: read-out: pA2 (converted)

## COC(=O)c1ccccc1OCC(O)CNCCc1ccc(OC)c(OC)c1 (configuration not stated)
Cavia porcellus [1]
  Kb: 0.0794 µM
Canis lupus familiaris
  Duration: 30 min

## COC(=O)c1ccccc1OCC(O)CNCCNc1ccc([N+](=O)[O-])cn1 (configuration not stated)
Cavia porcellus [2]
  Kb: 0.0316 µM
Cavia porcellus [1]
  Kb: 0.0794 µM
Cavia porcellus [3]
  Selectivity: 2.5
Canis lupus familiaris
  Duration: 15 min

## CC(C)NCC(O)COc1cccc2ccccc12 (configuration not stated) [PROPRANOLOL]
Cavia porcellus [4]
  Duration: >60 min

## COC(=O)c1ccccc1OCC(O)CNCCNC(=O)C(C)C (configuration not stated)
Cavia porcellus [2]
  Kb: 0.00794 µM
Cavia porcellus [1]
  Kb: 0.0316 µM
Cavia porcellus [3]
  Selectivity: 4
Canis lupus familiaris
  Duration: 17 min

## COC(=O)c1ccccc1OCC(O)CNC(C)(C)C (configuration not stated)
Canis lupus familiaris
  Duration: 22 min

## COC(=O)c1ccccc1OCC(O)CNC(C)(C)CNC(=O)N1CCOCC1 (configuration not stated)
Cavia porcellus [2]
  Kb: 0.0002 µM
Cavia porcellus [4]
  Duration: >60 min
Cavia porcellus [1]
  Kb: 0.001 µM
Cavia porcellus [3]
  Selectivity: 5

## COC(=O)c1ccc(OCC(O)CNCCN2CCCCC2)cc1 (configuration not stated)
Cavia porcellus [5]
  Kb: > 1 µM

## COC(=O)/C=C/c1ccccc1OCC(O)CNCCNC(=O)C(C)C (configuration not stated)
Cavia porcellus [2]
  Kb: 0.000398 µM
Cavia porcellus [4]
  Duration: >60 min
Cavia porcellus [1]
  Kb: 0.000794 µM
Cavia porcellus [3]
  Selectivity: 2

## COC(=O)c1ccccc1OCC(O)CN=C1CCN(C=O)CC1 (configuration not stated)
Cavia porcellus [2]
  Kb: > 1 µM

## CCOC(=O)c1ccccc1OCC(O)CNC(C)(C)CNC(N)=O (configuration not stated)
Cavia porcellus [2]
  Kb: 0.000126 µM
Cavia porcellus [4]
  Duration: >60 min
Cavia porcellus [1]
  Kb: 0.000501 µM
Cavia porcellus [3]
  Selectivity: 4

## CCOC(=O)c1ccccc1OCC(O)CNCCNC(=O)C(C)C (configuration not stated)
Cavia porcellus [2]
  Kb: 0.00316 µM
Cavia porcellus [1]
  Kb: 0.02 µM
Cavia porcellus [3]
  Selectivity: 6.3
Canis lupus familiaris
  Duration: 40 min

## COC(=O)c1ccccc1OCC(O)CNCCNS(=O)(=O)N(C)C (configuration not stated)
Cavia porcellus [2]
  Kb: 0.0316 µM
Cavia porcellus [1]
  Kb: 0.0501 µM
Canis lupus familiaris
  Duration: 15 min

## COC(=O)c1ccc(OCC(O)CNCCN2CCOCC2)cc1 (configuration not stated)
Cavia porcellus [5]
  Kb: > 1 µM

## COC(=O)c1ccc(OCC(O)CNC(C)C)cc1 (configuration not stated)
Cavia porcellus [1]
  Kb: 3.16 µM

## COC(=O)c1ccccc1OCC(O)CNCCNC(=O)Cc1ccccc1 (configuration not stated)
Cavia porcellus [2]
  Kb: 0.00501 µM
Cavia porcellus [1]
  Kb: 0.02 µM
Cavia porcellus [3]
  Selectivity: 4
Canis lupus familiaris
  Duration: 42 min

## COC(=O)c1ccccc1OCC(O)CNCc1nc2ccccc2[nH]1 (configuration not stated)
Cavia porcellus [2]
  Kb: 0.316 µM

## COC(=O)c1ccccc1OCC(O)CNCCNc1cc(Cl)c2ccccc2c1O (configuration not stated)
Cavia porcellus [2]
  Kb: 0.631 µM

## Cc1ccccc1OCC(O)CNCCNC(=O)C(C)C (configuration not stated)
Cavia porcellus [2]
  Kb: 0.00501 µM
Cavia porcellus [4]
  Duration: >60 min
Cavia porcellus [1]
  Kb: 0.02 µM
Cavia porcellus [3]
  Selectivity: 4

## COC(=O)c1ccccc1OCC(O)CNC(C)(C)CNS(=O)(=O)c1ccccc1 (configuration not stated)
Cavia porcellus [1]
  Kb: 0.00158 µM

## COC(=O)c1ccccc1OCC(O)CNCCNC(=O)Nc1ccccc1 (configuration not stated)
Cavia porcellus [2]
  Kb: 0.00794 µM
Cavia porcellus [4]
  Duration: >60 min
Cavia porcellus [1]
  Kb: 0.2 µM
Cavia porcellus [3]
  Selectivity: 25.1

## CCOC(=O)N1CCC(=NCC(O)COc2ccccc2C(=O)OC)CC1 (configuration not stated)
Cavia porcellus [2]
  Kb: > 1 µM

## COC(=O)c1ccc(OCC(O)CNCCN2CCCC2)cc1 (configuration not stated)
Cavia porcellus [5]
  Kb: > 1 µM

## COC(=O)c1ccccc1OCC(O)CNCCNC(C)=O (configuration not stated)
Cavia porcellus [2]
  Kb: 0.0501 µM
Cavia porcellus [1]
  Kb: 0.1 µM
Cavia porcellus [3]
  Selectivity: 2
Canis lupus familiaris
  Duration: 18 min

## COC(=O)c1ccccc1OCC(O)CNC(C)(C)CNC(N)=O (configuration not stated)
Cavia porcellus [2]
  Kb: 0.00126 µM
Cavia porcellus [1]
  Kb: 0.00316 µM
Cavia porcellus [3]
  Selectivity: 2.5
Canis lupus familiaris
  Duration: >60 min

## CCOC(=O)NCC(C)(C)NCC(O)COc1ccccc1C(=O)OC (configuration not stated)
Cavia porcellus [2]
  Kb: 0.00251 µM
Cavia porcellus [1]
  Kb: 0.00631 µM
Cavia porcellus [3]
  Selectivity: 2.5
Canis lupus familiaris
  Duration: 30 min

## COC(=O)CCc1ccccc1OCC(O)CNCCNC(=O)C(C)C (configuration not stated)
Cavia porcellus [2]
  Kb: 0.0251 µM
Cavia porcellus [4]
  Duration: >60 min
Cavia porcellus [1]
  Kb: 0.02 µM

## COC(=O)c1ccccc1OCC(O)CNC(C)C (configuration not stated)
Cavia porcellus [2]
  Kb: 0.00501 µM
Cavia porcellus [1]
  Kb: 0.0126 µM
Cavia porcellus [3]
  Selectivity: 2.5
Canis lupus familiaris
  Duration: 15 min

## Cc1ccccc1OCC(O)CNC(C)C (configuration not stated)
Cavia porcellus [2]
  Kb: 0.00251 µM
Cavia porcellus [4]
  Duration: >60 min
Cavia porcellus [1]
  Kb: 0.00631 µM
Cavia porcellus [3]
  Selectivity: 2.5

## COC(=O)c1ccccc1OCC(O)CNCCNS(=O)(=O)c1ccc(C)cc1 (configuration not stated)
Cavia porcellus [2]
  Kb: 0.158 µM
Cavia porcellus [1]
  Kb: 0.0794 µM
